Like-named read-outs stand apart in the source and are kept apart here.

Results on 13 compounds are retold here after paper PMC8015227, “Understanding the Metabolism of Proteolysis Targeting Chimeras (PROTACs): The Next Step toward Pharmaceutical Applications” (Journal of Medicinal Chemistry, 2020).

The nature of data set [1]: Metabolic stability in cryopreserved human hepatocytes. The format is in vitro ADME. The following applies: human, cryopreserved human hepatocytes (pooled, suspension).
The test system of data set [2] is cryopreserved human hepatocytes. The description is as above. The format is in vitro ADME. As to conditions: for HLH percentage of substrate left at the final time point of analysis: supplement CSV, in brackets, final time point 240 min.
The mark [3] stands for this setting: Table S1, PROTACs, cryopreserved human hepatocytes, read-out: t1/2.
[4] abbreviates: supplement CSV, human hepatocytes, read-out: HLH t1/2.
[5] abbreviates: Figures 3-5, cryopreserved human hepatocytes, read-out: half-life (t1/2).

As to `Cc1sc2c(c1C)C(c1ccc(Cl)cc1)=N[C@@H](CC(=O)NCCCCCCCCNc1cccc3c1C(=O)N(C1CCC(=O)NC1=O)C3=O)c1nnc(C)n1-2` (stereo partly drawn) [Compound 4, 2-((S)-4-(4-Chlorophenyl)-2,3,9-trimethyl-6H-thieno[3,2-f][1,2,4]triazolo[4,3-a][1,4]diazepin-6-yl)-N-(8-((2-(2,6-dioxopiperidin-3-yl)-1,3-dioxoisoindolin-4-yl)amino)octyl)acetamide], the half-life at 1 µM in data set [1] (Table 1, incubation in cryopreserved human hepatocytes, 1 μM, up to 240 min, read-out: t1/2) stood at 0.918 h; in data set [1] (setting [3]) it was 0.918 h; in data set [1] (setting [4]) it was 0.918 h. In addition, the “Reaction (soft spots)” value in data set [2] (Table 1, biotransformations observed in cryopreserved human hepatocytes) is recorded as “a. N-dealkylation (x2) b. Aliphatic-hydroxylation c. Dehydrogenation*”.
Turning to `Cc1ncsc1-c1ccc([C@H](C)NC(=O)[C@@H]2C[C@@H](O)CN2C(=O)[C@@H](NC(=O)CCN2CCN(C(=O)C[C@@H]3N=C(c4ccc(Cl)cc4)c4c(sc(C)c4C)-n4c(C)nnc43)CC2)C(C)(C)C)cc1` [Compound 11, (2S,4R)-1-((S)-2-(3-(4-(2-((S)-4-(4-Chlorophenyl)-2,3,9-trimethyl-6H-thieno[3,2-f][1,2,4]triazolo[4,3-a][1,4]diazepin-6-yl)acetyl)piperazin-1-yl)propanamido)-3,3-dimethylbutanoyl)-4-hydroxy-N-((S)-1-(4-(4-methylthiazol-5-yl)phenyl)ethyl)pyrrolidine-2-carboxamide], the half-life at 1 µM in data set [1] (setting [5]), in data set [1] (setting [3]) and in data set [1] (setting [4]) was greater than 4 h each time. Also, the “HLH percentage of substrate left at the final time point of analysis” value in data set [2] turned out to be 70.0%.
On to `Cc1ncsc1-c1ccc([C@H](C)NC(=O)[C@@H]2C[C@@H](O)CN2C(=O)[C@@H](NC(=O)CN2CCN(C(=O)c3ccc4c(c3)nc(Nc3cccc(Cl)c3)c3ccncc34)CC2)C(C)(C)C)cc1` [Compound 20, (2S,4R)-1-((S)-2-(2-(4-(5-((3-Chlorophenyl)amino)benzo[c][2,6]naphthyridine-8-carbonyl)piperazin-1-yl)acetamido)-3,3-dimethylbutanoyl)-4-hydroxy-N-((S)-1-(4-(4-methylthiazol-5-yl)phenyl)ethyl)pyrrolidine-2-carboxamide], for which the half-life at 1 µM in data set [1] (setting [5]), in data set [1] (setting [3]) and in data set [1] (setting [4]) was 3.63 h in each case.
Take `O=C1CCC(N2C(=O)c3cccc(NCCCCCCCCCCC(=O)N4CCN(C(=O)c5cc(Cc6n[nH]c(=O)c7ccccc67)ccc5F)CC4)c3C2=O)C(=O)N1` (centres unmarked) [Compound 21, 2-(2,6-Dioxopiperidin-3-yl)-4-((11-(4-(2-fluoro-5-((4-oxo-3,4-dihydrophthalazin-1-yl)methyl)benzoyl)piperazin-1-yl)-11-oxoundecyl)amino)isoindoline-1,3-dione]: the half-life at 1 µM in data set [1] (setting [3]) and in data set [1] (setting [4]) was 0.262 h each time.
For the compound `Cc1ncsc1-c1ccc([C@H](C)NC(=O)[C@@H]2C[C@@H](O)CN2C(=O)[C@@H](NC(=O)CCCCCCCCCCC(=O)N2CCN(C(=O)c3cc(Cc4n[nH]c(=O)c5ccccc45)ccc3F)CC2)C(C)(C)C)cc1` [Compound 22, (2S,4R)-1-((S)-2-(12-(4-(2-Fluoro-5-((4-oxo-3,4-dihydrophthalazin-1-yl)methyl)benzoyl)piperazin-1-yl)-12-oxododecanamido)-3,3-dimethylbutanoyl)-4-hydroxy-N-((S)-1-(4-(4-methylthiazol-5-yl)phenyl)ethyl)pyrrolidine-2-carboxamide], the half-life at 1 µM in data set [1] (setting [3]) and in data set [1] (setting [4]) was 1.58 h in each case.
As to `Cc1ncsc1-c1ccc([C@H](C)NC(=O)[C@@H]2C[C@@H](O)CN2C(=O)[C@@H](NC(=O)CCCCCCC(=O)N2CCN(C(=O)c3cc(Cc4n[nH]c(=O)c5ccccc45)ccc3F)CC2)C(C)(C)C)cc1` [Compound 23, (2S,4R)-1-((S)-2-(8-(4-(2-Fluoro-5-((4-oxo-3,4-dihydrophthalazin-1-yl)methyl)benzoyl)piperazin-1-yl)-8-oxooctanamido)-3,3-dimethylbutanoyl)-4-hydroxy-N-((S)-1-(4-(4-methylthiazol-5-yl)phenyl)ethyl)pyrrolidine-2-carboxamide], the half-life at 1 µM in data set [1] (setting [3]) and in data set [1] (setting [4]) was 1.52 h each time.
In the case of `Cc1ncsc1-c1ccc([C@H](C)NC(=O)[C@@H]2C[C@@H](O)CN2C(=O)[C@@H](NC(=O)CCCCn2cc(CN3CCN(C(=O)c4cc(Cc5n[nH]c(=O)c6ccccc56)ccc4F)CC3)nn2)C(C)(C)C)cc1` [Compound 24, (2S,4R)-1-((S)-2-(5-(4-((4-(2-Fluoro-5-((4-oxo-3,4-dihydrophthalazin-1-yl)methyl)benzoyl)piperazin-1-yl)methyl)-1H-1,2,3-triazol-1-yl)pentanamido)-3,3-dimethylbutanoyl)-4-hydroxy-N-((S)-1-(4-(4-methylthiazol-5-yl)phenyl)ethyl)pyrrolidine-2-carboxamide], the half-life at 1 µM in data set [1] (setting [5]), in data set [1] (setting [3]) and in data set [1] (setting [4]) was greater than 4 h in each case. Further, the substrate left result in data set [2] (cryopreserved human hepatocytes, end of incubation (240 min)) is recorded as “about 84%”. The “HLH percentage of substrate left at the final time point of analysis” value in data set [2] was 84.3%.
In the case of `O=C(COc1cccc2c1C(=O)N(C1CCC(=O)NC1=O)C2=O)NCCOCCOCCOCCNC(=O)COc1c(-c2csc(N3CCOCC3)n2)ccc(F)c1F` (centres unmarked) [Compound 28, 2-(2,3-Difluoro-6-(2-morpholinothiazol-4-yl)phenoxy)-N-(1-((2-(2,6-dioxopiperidin-3-yl)-1,3-dioxoisoindolin-4-yl)oxy)-2-oxo-6,9,12-trioxa-3-azatetradecan-14-yl)acetamide], the half-life at 1 µM in data set [1] (setting [3]) and in data set [1] (setting [4]) was 1.11 h each time.
For the compound `O=C1CCC(N2C(=O)c3cccc(NCCOCCOCCOc4c(-c5csc(N6CCOCC6)n5)ccc(F)c4F)c3C2=O)C(=O)N1` (centres unmarked) [Compound 32, 4-((2-(2-(2-(2,3-Difluoro-6-(2-morpholinothiazol-4-yl)phenoxy)ethoxy)ethoxy)ethyl)amino)-2-(2,6-dioxopiperidin-3-yl)isoindoline-1,3-dione], the half-life at 1 µM in data set [1] (setting [3]) and in data set [1] (setting [4]) was 0.755 h each time.
As for `Cc1ncsc1-c1ccc([C@H](C)NC(=O)[C@@H]2C[C@@H](O)CN2C(=O)[C@@H](NC(=O)COCCCNC(=O)COc2c(-c3csc(N4CCOCC4)n3)ccc(F)c2F)C(C)(C)C)cc1` [Compound 36], the half-life at 1 µM in data set [1] (setting [3]) and in data set [1] (setting [4]) was 0.42 h each time.
As for `Cc1ncsc1-c1ccc([C@H](C)NC(=O)[C@@H]2C[C@@H](O)CN2C(=O)[C@@H](NC(=O)CCCCCCCOc2c(-c3csc(N4CCOCC4)n3)ccc(F)c2F)C(C)(C)C)cc1` [Compound 38], the half-life at 1 µM in data set [1] (setting [3]) and in data set [1] (setting [4]) was 1.13 h throughout.
For `Cc1ncsc1-c1ccc([C@H](C)NC(=O)[C@@H]2C[C@@H](O)CN2C(=O)[C@@H](NC(=O)CCCCn2cc(COc3c(-c4csc(N5CCOCC5)n4)ccc(F)c3F)nn2)C(C)(C)C)cc1` [Compound 39], the half-life at 1 µM in data set [1] (setting [5]), in data set [1] (setting [3]) and in data set [1] (setting [4]) was 0.668 h in each case.
As to `O=C(O)c1ccc2c(c1)nc(Nc1cccc(Cl)c1)c1ccncc12` [Compound 44, CX4945, reference compound], the half-life at 1 µM was determined as 1.66 h in data set [1] (Table S2, free ligands, cryopreserved human hepatocytes, read-out: t1/2) and 1.66 h in data set [1] (setting [4]).
